Reference: the supplement of paper PMC10307832

How the values were obtained:
Assay in all cases: relative viability (nuclei count vs DMSO), 5 days (fraction); higher = more cells survive
[1] = compound: CN(NC(=O)CC(=O)NN(C)C(=S)c1ccccc1)C(=S)c1ccccc1 [Elesclomol]
How it was run: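 Viability is treated-well nuclei as a fraction of vehicle-well nuclei, reported as the median across plates. Before counting, lung cancer cell lines were kept overnight at 37 °C in 1536-well plates, pinned with five √10-spaced library-drug doses on vehicle-anchored plates, and left 5 days without medium change, then fixed, permeabilised and Hoechst-stained in one step, imaged at 4× and counted by MetaXpress. A plate passed only if control CV was below 25% and at least one doubling occurred.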

[2] = compound: CN(NC(=O)CC(=O)NN(C)C(=S)c1ccccc1)C(=S)c1ccccc1 [Elesclomol] + CC1(C)CCC(c2ccc(Cl)cc2)=C(CN2CCN(c3ccc(C(=O)NS(=O)(=O)c4ccc(N[C@H](CCN5CCOCC5)CSc5ccccc5)c(S(=O)(=O)C(F)(F)F)c4)cc3)CC2)C1 [Navitoclax] (partner 0.5 µM)
How it was run: (§1)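 The day after seeding in 1536-well plates, lung cancer cell lines were treated by pin tool with a single drug, or with a fixed anchor-drug dose together with five library-drug doses (not always all listed) in √10 steps. After 5 days, a combined fix-and-stain solution (final 0.05% Triton X-100, 1% formaldehyde, 1 ug/ml Hoechst) was added. Nuclei counted on 4× images gave relative viability as treated counts over vehicle counts, reported as the median of duplicate plates.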

[3] = compound: CN(NC(=O)CC(=O)NN(C)C(=S)c1ccccc1)C(=S)c1ccccc1 [Elesclomol] + C[C@]1(O)C[C@@H](c2nc(-c3ccc4ccc(-c5ccccc5)nc4c3)c3c(N)nccn32)C1 [Linsitinib] (partner 1 µM)
How it was run: as §1

[4] = compound: CN(NC(=O)CC(=O)NN(C)C(=S)c1ccccc1)C(=S)c1ccccc1 [Elesclomol] + CC(C)C[C@H](NC(=O)[C@H](Cc1ccccc1)NC(=O)c1cnccn1)B(O)O [Bortezomib] (partner 0.002 µM)
How it was run: as §1

[5] = compound: CN(NC(=O)CC(=O)NN(C)C(=S)c1ccccc1)C(=S)c1ccccc1 [Elesclomol] + C[C@@H](Oc1cc(-c2cnn(C3CCNCC3)c2)cnc1N)c1c(Cl)ccc(F)c1Cl [Crizotinib] (partner 1 µM)
How it was run: as §1

[6] = compound: CN(NC(=O)CC(=O)NN(C)C(=S)c1ccccc1)C(=S)c1ccccc1 [Elesclomol] + CS(=O)(=O)N1CCN(Cc2cc3nc(-c4cccc5[nH]ncc45)nc(N4CCOCC4)c3s2)CC1 [Pictilisib] (partner 1 µM)
How it was run: as §1

[7] = compound: CN(NC(=O)CC(=O)NN(C)C(=S)c1ccccc1)C(=S)c1ccccc1 [Elesclomol] + CS(=O)(=O)CCNCc1ccc(-c2ccc3ncnc(Nc4ccc(OCc5cccc(F)c5)c(Cl)c4)c3c2)o1 [Lapatinib] (partner 2 µM)
How it was run: as §1

[8] = compound: CN(NC(=O)CC(=O)NN(C)C(=S)c1ccccc1)C(=S)c1ccccc1 [Elesclomol] + COc1cc2c(Oc3ccc(NC(=O)C4(C(=O)Nc5ccc(F)cc5)CC4)cc3F)ccnc2cc1OCCCN1CCOCC1 [Foretinib] (partner 0.25 µM)
How it was run: as §1

[9] = compound: CN(NC(=O)CC(=O)NN(C)C(=S)c1ccccc1)C(=S)c1ccccc1 [Elesclomol] + O=C(c1cc(Cc2n[nH]c(=O)c3ccccc23)ccc1F)N1CCN(C(=O)C2CC2)CC1 [Olaparib] (partner 8 µM)
How it was run: as §1

[10] = compound: CN(NC(=O)CC(=O)NN(C)C(=S)c1ccccc1)C(=S)c1ccccc1 [Elesclomol] + Cc1nc(NC(=O)N2CCC[C@H]2C(N)=O)sc1-c1ccnc(C(C)(C)C(F)(F)F)c1 [Alpelisib] (partner 2 µM)
How it was run: as §1

[11] = compound: CN(NC(=O)CC(=O)NN(C)C(=S)c1ccccc1)C(=S)c1ccccc1 [Elesclomol] + Cc1nc(Nc2ncc(C(=O)Nc3c(C)cccc3Cl)s2)cc(N2CCN(CCO)CC2)n1 [Dasatinib] (partner 0.075 µM)
How it was run: as §1

[12] = compound: CN(NC(=O)CC(=O)NN(C)C(=S)c1ccccc1)C(=S)c1ccccc1 [Elesclomol] + COc1cccc2cc(-c3nc([C@H]4CC[C@H](C(=O)O)CC4)n4ncnc(N)c34)[nH]c12 [OSI-027] (partner 0.5 µM)
How it was run: as §1

[13] = compound: CN(NC(=O)CC(=O)NN(C)C(=S)c1ccccc1)C(=S)c1ccccc1 [Elesclomol] + N=C(N)NC(=N)NCCc1ccccc1 [Phenformin] (partner 250 µM)
How it was run: as §1

[14] = compound: CN(NC(=O)CC(=O)NN(C)C(=S)c1ccccc1)C(=S)c1ccccc1 [Elesclomol] + Cc1cc(Nc2cc(N3CCN(C)CC3)nc(Sc3ccc(NC(=O)C4CC4)cc3)n2)n[nH]1 [Tozasertib] (partner 0.1 µM)
How it was run: as §1

[15] = compound: CN(NC(=O)CC(=O)NN(C)C(=S)c1ccccc1)C(=S)c1ccccc1 [Elesclomol] + CCNC(=O)c1noc(-c2cc(C(C)C)c(O)cc2O)c1-c1ccc(CN2CCOCC2)cc1 [Luminespib] (partner 0.01 µM)
How it was run: as §1

Cell Line: NCI-H1299
- relative viability ([1]; 0.003162 µM): 1.03
- relative viability ([1]; 0.01 µM): 0.733
- relative viability ([1]; 0.03162 µM): 0.709
- relative viability ([1]; 0.1 µM): 0.42
- relative viability ([2]; first compound 0.003162 µM): 1.05
- relative viability ([2]; first compound 0.01 µM): 0.97
- relative viability ([2]; first compound 0.03162 µM): 0.932
- relative viability ([2]; first compound 0.1 µM): 0.661
- relative viability ([3]; first compound 0.003162 µM): 0.994
- relative viability ([3]; first compound 0.01 µM): 0.677
- relative viability ([3]; first compound 0.03162 µM): 0.549
- relative viability ([3]; first compound 0.1 µM): 0.145
- relative viability ([4]; first compound 0.003162 µM): 1.03
- relative viability ([4]; first compound 0.01 µM): 0.921
- relative viability ([4]; first compound 0.03162 µM): 0.834
- relative viability ([4]; first compound 0.1 µM): 0.622
- relative viability ([5]; first compound 0.003162 µM): 0.613
- relative viability ([5]; first compound 0.01 µM): 0.822
- relative viability ([5]; first compound 0.03162 µM): 0.698
- relative viability ([5]; first compound 0.1 µM): 0.507
- relative viability ([6]; first compound 0.003162 µM): 0.743
- relative viability ([6]; first compound 0.01 µM): 0.171
- relative viability ([6]; first compound 0.03162 µM): 0.134
- relative viability ([6]; first compound 0.1 µM): 0.0529
- relative viability ([7]; first compound 0.003162 µM): 0.947
- relative viability ([7]; first compound 0.01 µM): 0.852
- relative viability ([7]; first compound 0.03162 µM): 0.698
- relative viability ([7]; first compound 0.1 µM): 0.547
- relative viability ([8]; first compound 0.003162 µM): 1.04
- relative viability ([8]; first compound 0.01 µM): 1.06
- relative viability ([8]; first compound 0.03162 µM): 0.588
- relative viability ([8]; first compound 0.1 µM): 0.333
- relative viability ([9]; first compound 0.003162 µM): 0.991
- relative viability ([9]; first compound 0.01 µM): 0.574
- relative viability ([9]; first compound 0.03162 µM): 0.401
- relative viability ([9]; first compound 0.1 µM): 0.146
- relative viability ([10]; first compound 0.003162 µM): 1.08
- relative viability ([10]; first compound 0.01 µM): 1.05
- relative viability ([10]; first compound 0.03162 µM): 0.918
- relative viability ([10]; first compound 0.1 µM): 0.636

Cell Line: NCI-H1623
- relative viability ([1]; 0.003162 µM): 0.775
- relative viability ([1]; 0.01 µM): 0.462
- relative viability ([1]; 0.03162 µM): 0.37
- relative viability ([1]; 0.1 µM): 0.339
- relative viability ([11]; first compound 0.003162 µM): 0.499
- relative viability ([11]; first compound 0.01 µM): 0.464
- relative viability ([11]; first compound 0.03162 µM): 0.312
- relative viability ([11]; first compound 0.1 µM): 0.254
- relative viability ([12]; first compound 0.003162 µM): 0.386
- relative viability ([12]; first compound 0.01 µM): 0.353
- relative viability ([12]; first compound 0.03162 µM): 0.347
- relative viability ([12]; first compound 0.1 µM): 0.296
- relative viability ([13]; first compound 0.003162 µM): 0.624
- relative viability ([13]; first compound 0.01 µM): 0.552
- relative viability ([13]; first compound 0.03162 µM): 0.539
- relative viability ([13]; first compound 0.1 µM): 0.443
- relative viability ([8]; first compound 0.003162 µM): 0.868
- relative viability ([8]; first compound 0.01 µM): 0.526
- relative viability ([8]; first compound 0.03162 µM): 0.422
- relative viability ([8]; first compound 0.1 µM): 0.422
- relative viability ([14]; first compound 0.003162 µM): 0.392
- relative viability ([14]; first compound 0.01 µM): 0.417
- relative viability ([14]; first compound 0.03162 µM): 0.35
- relative viability ([14]; first compound 0.1 µM): 0.303
- relative viability ([15]; first compound 0.003162 µM): 0.235
- relative viability ([15]; first compound 0.01 µM): 0.216
- relative viability ([15]; first compound 0.03162 µM): 0.251
- relative viability ([15]; first compound 0.1 µM): 0.217
